# From patent publication US20140155580A1, “TRANSGENIC AVES PRODUCING HUMAN POLYCLONAL ANTIBODIES” (Synageva BioPharma Corp., priority 2003, published 2014)
# Tested on: chicken embryonic stem cells
# Assay: Titration kill curve: cES cells in culture exposed to puromycin or neomycin
# Format: cell-based
# Set-up: key to Morphology of cES cells: ES: ES cells are present.; diff: ES cells are differentiated.; gone: no morphologically recognizable cells are present
# Method: In a preferred embodiment, the concentration of puromycin required for selecting transfected cells is calculated as a titration kill curve. Titration kill curves for chicken embryonic stem cells are established by exposing cells in culture to puromycin concentrations varying from 0.0 to 1.0 μg/ml for 10 days (Table 7) and neomycin concentrations varying from 0.0 to 200 μg/ml (Table 8). The medium is changed every 2 days and fresh puromycin or neomycin is added. […] Puromycin concentrations of 0.3-1.0 μg/ml are used for selection of the transfected cultures. Neomycin concentrations over 40 μg/ml eliminated all cES cells within 7 days (Table 8).
structure (smiles),measurement,setting,value
"COc1ccc(C[C@H](N)C(=O)N[C@H]2[C@@H](O)[C@H](n3cnc4c(N(C)C)ncnc43)O[C@@H]2CO)cc1 [Puromycin, puromycin]",Presence of ES cells in wells after exposure,"0.3 μg/ml puromycin, 3 changes of medium with fresh puromycin over a six day period",absent from all wells
same,Morphology of cES cells,"puromycin 0.1 μg/ml, day 1 under selection",ES
same,Morphology of cES cells,"puromycin 0.1 μg/ml, day 2 under selection",ES
same,Morphology of cES cells,"puromycin 0.1 μg/ml, day 3 under selection",ES
same,Morphology of cES cells,"puromycin 0.1 μg/ml, day 4 under selection",ES
same,Morphology of cES cells,"puromycin 0.1 μg/ml, day 5 under selection",ES
same,Morphology of cES cells,"puromycin 0.1 μg/ml, day 6 under selection",ES
same,Morphology of cES cells,"puromycin 0.1 μg/ml, day 7 under selection",ES
same,Morphology of cES cells,"puromycin 0.1 μg/ml, day 8 under selection",ES
same,Morphology of cES cells,"puromycin 0.1 μg/ml, day 9 under selection",ES
same,Morphology of cES cells,"puromycin 0.1 μg/ml, day 10 under selection",ES
same,Morphology of cES cells,"puromycin 0.2 μg/ml, day 1 under selection",ES
same,Morphology of cES cells,"puromycin 0.2 μg/ml, day 2 under selection",ES
same,Morphology of cES cells,"puromycin 0.2 μg/ml, day 3 under selection",ES
same,Morphology of cES cells,"puromycin 0.2 μg/ml, day 4 under selection",ES
same,Morphology of cES cells,"puromycin 0.2 μg/ml, day 5 under selection",ES
same,Morphology of cES cells,"puromycin 0.2 μg/ml, day 6 under selection",ES
same,Morphology of cES cells,"puromycin 0.2 μg/ml, day 7 under selection",ES
same,Morphology of cES cells,"puromycin 0.2 μg/ml, day 8 under selection",ES
same,Morphology of cES cells,"puromycin 0.2 μg/ml, day 9 under selection",ES
same,Morphology of cES cells,"puromycin 0.2 μg/ml, day 10 under selection",ES
same,Morphology of cES cells,"puromycin 0.25 μg/ml, day 1 under selection",ES
same,Morphology of cES cells,"puromycin 0.25 μg/ml, day 2 under selection",ES
same,Morphology of cES cells,"puromycin 0.25 μg/ml, day 3 under selection",ES
same,Morphology of cES cells,"puromycin 0.25 μg/ml, day 4 under selection",ES
same,Morphology of cES cells,"puromycin 0.25 μg/ml, day 5 under selection",ES
same,Morphology of cES cells,"puromycin 0.25 μg/ml, day 6 under selection",diff
same,Morphology of cES cells,"puromycin 0.25 μg/ml, day 7 under selection",diff
same,Morphology of cES cells,"puromycin 0.3 μg/ml, day 1 under selection",ES
same,Morphology of cES cells,"puromycin 0.3 μg/ml, day 2 under selection",ES
same,Morphology of cES cells,"puromycin 0.3 μg/ml, day 3 under selection",diff
same,Morphology of cES cells,"puromycin 0.3 μg/ml, day 6 under selection",gone
same,Morphology of cES cells,"puromycin 0.3 μg/ml, day 7 under selection",gone
same,Morphology of cES cells,"puromycin 0.3 μg/ml, day 8 under selection",gone
same,Morphology of cES cells,"puromycin 0.3 μg/ml, day 9 under selection",gone
same,Morphology of cES cells,"puromycin 0.3 μg/ml, day 10 under selection",gone
same,Morphology of cES cells,"puromycin 0.4 μg/ml, day 1 under selection",ES
same,Morphology of cES cells,"puromycin 0.4 μg/ml, day 2 under selection",diff
same,Morphology of cES cells,"puromycin 0.4 μg/ml, day 3 under selection",gone
same,Morphology of cES cells,"puromycin 0.4 μg/ml, day 4 under selection",gone
same,Morphology of cES cells,"puromycin 0.4 μg/ml, day 5 under selection",gone
same,Morphology of cES cells,"puromycin 0.4 μg/ml, day 6 under selection",gone
same,Morphology of cES cells,"puromycin 0.4 μg/ml, day 7 under selection",gone
same,Morphology of cES cells,"puromycin 0.4 μg/ml, day 8 under selection",gone
same,Morphology of cES cells,"puromycin 0.4 μg/ml, day 9 under selection",gone
same,Morphology of cES cells,"puromycin 0.4 μg/ml, day 10 under selection",gone
same,Morphology of cES cells,"puromycin 0.5 μg/ml, day 1 under selection",diff
same,Morphology of cES cells,"puromycin 0.5 μg/ml, day 2 under selection",gone
same,Morphology of cES cells,"puromycin 0.5 μg/ml, day 3 under selection",gone
same,Morphology of cES cells,"puromycin 0.5 μg/ml, day 4 under selection",gone
same,Morphology of cES cells,"puromycin 0.5 μg/ml, day 5 under selection",gone
same,Morphology of cES cells,"puromycin 0.5 μg/ml, day 6 under selection",gone
same,Morphology of cES cells,"puromycin 0.5 μg/ml, day 7 under selection",gone
same,Morphology of cES cells,"puromycin 0.5 μg/ml, day 8 under selection",gone
same,Morphology of cES cells,"puromycin 0.5 μg/ml, day 9 under selection",gone
same,Morphology of cES cells,"puromycin 0.5 μg/ml, day 10 under selection",gone
same,Morphology of cES cells,"puromycin 0.6 μg/ml, day 1 under selection",diff
same,Morphology of cES cells,"puromycin 0.6 μg/ml, day 2 under selection",gone
same,Morphology of cES cells,"puromycin 0.6 μg/ml, day 3 under selection",gone
same,Morphology of cES cells,"puromycin 0.6 μg/ml, day 4 under selection",gone
same,Morphology of cES cells,"puromycin 0.6 μg/ml, day 5 under selection",gone
same,Morphology of cES cells,"puromycin 0.6 μg/ml, day 6 under selection",gone
same,Morphology of cES cells,"puromycin 0.6 μg/ml, day 7 under selection",gone
same,Morphology of cES cells,"puromycin 0.6 μg/ml, day 8 under selection",gone
same,Morphology of cES cells,"puromycin 0.6 μg/ml, day 9 under selection",gone
same,Morphology of cES cells,"puromycin 0.6 μg/ml, day 10 under selection",gone
same,Morphology of cES cells,"puromycin 0.7 μg/ml, day 1 under selection",diff
same,Morphology of cES cells,"puromycin 0.7 μg/ml, day 2 under selection",gone
same,Morphology of cES cells,"puromycin 0.7 μg/ml, day 3 under selection",gone
same,Morphology of cES cells,"puromycin 0.7 μg/ml, day 4 under selection",gone
same,Morphology of cES cells,"puromycin 0.7 μg/ml, day 5 under selection",gone
same,Morphology of cES cells,"puromycin 0.7 μg/ml, day 6 under selection",gone
same,Morphology of cES cells,"puromycin 0.7 μg/ml, day 7 under selection",gone
same,Morphology of cES cells,"puromycin 0.7 μg/ml, day 8 under selection",gone
same,Morphology of cES cells,"puromycin 0.7 μg/ml, day 9 under selection",gone
same,Morphology of cES cells,"puromycin 0.7 μg/ml, day 10 under selection",gone
same,Morphology of cES cells,"puromycin 0.8 μg/ml, day 1 under selection",gone
same,Morphology of cES cells,"puromycin 0.8 μg/ml, day 2 under selection",gone
same,Morphology of cES cells,"puromycin 0.8 μg/ml, day 3 under selection",gone
same,Morphology of cES cells,"puromycin 0.8 μg/ml, day 4 under selection",gone
same,Morphology of cES cells,"puromycin 0.8 μg/ml, day 5 under selection",gone
same,Morphology of cES cells,"puromycin 0.8 μg/ml, day 6 under selection",gone
same,Morphology of cES cells,"puromycin 0.8 μg/ml, day 7 under selection",gone
same,Morphology of cES cells,"puromycin 0.8 μg/ml, day 8 under selection",gone
same,Morphology of cES cells,"puromycin 0.8 μg/ml, day 9 under selection",gone
same,Morphology of cES cells,"puromycin 0.8 μg/ml, day 10 under selection",gone
